According to ChEMBL document CHEMBL4342517, “Design, Synthesis, and Mechanism Study of Benzenesulfonamide-Containing Phenylalanine Derivatives as Novel HIV-1 Capsid Inhibitors with Improved Antiviral Activities” (J Med Chem, 2020):
Active and inactive are the calls of the source. The rule behind the calls is not given here.

How the values were obtained:
[1] = Acute toxicity in Kunming mouse assessed as increase in body weight at 1000 mg/kg, ig administered as single dose; type: organism-based; conditions: in vivo, po
[2] = Cmax in Sprague-Dawley rat at 2 mg/kg, iv measured during 5 mins to 12 hrs by LC-MS analysis; type: ADME, organism-based; design: dose 2 mg/kg, route intravenous; conditions: in vivo
in vitro [3] = conditions: human, liver microsomes
Description: Stability in human liver microsomes assessed as compound remaining level incubated for 60 mins in absence of NADPH regenerating system by LC-MS/MS analysis

[4] = Mean residence time (0 to infinity) in Sprague-Dawley rat at 2 mg/kg, iv measured during 5 mins to 12 hrs by LC-MS analysis; conditions: in vivo
in vitro [5] = conditions: human, liver microsomes; remark: listed apart in the source
Description: Stability in human liver microsomes assessed as compound remaining level incubated for 60 mins in presence of NADPH regenerating system by LC-MS/MS analysis

[6] = AUC (0 to infinity) in Sprague-Dawley rat at 20 mg/kg, po measured during 5 mins to 12 hrs by LC-MS analysis; type: ADME, organism-based; design: dose 20 mg/kg, time infinity, route oral; conditions: in vivo
[7] = target: Structural capsid protein (Human immunodeficiency virus 1) (UniProt Q76129); assay: Inhibition of HIV1 NL4-3 capsid protein assembly at 50 uM measured every 1 min for 19 mins
[8] = Clearance in Sprague-Dawley rat at 2 mg/kg, iv measured during 5 mins to 12 hrs by LC-MS analysis; type: ADME, organism-based; conditions: in vivo
[9] = AUC (0 to infinity) in Sprague-Dawley rat at 2 mg/kg, iv measured during 5 mins to 12 hrs by LC-MS analysis; type: ADME, organism-based; design: dose 2 mg/kg, time infinity, route intravenous; conditions: in vivo
[10] = Acute toxicity in Kunming mouse assessed as induction of abnormal behaviors by measuring lethargy at 1000 mg/kg, ig administered as single dose; type: organism-based; conditions: in vivo, po
in vivo [11] = conditions: Sprague-Dawley, rat, iv, 2 mg/kg
TZM = assay: Cytotoxicity in uninfected human TZM-bl assessed as reduction in cell viability incubated for 1 day by Cyto-tox-Glo cytotoxicity assay; type: cell-based; conditions: 24 h
[12] = tested on: Human immunodeficiency virus 1; assay: Antiviral activity against HIV1 3B infected in human MT4 cells assessed as reduction in virus-induced cell death incubated for 5 days by MTT assay; type: functional, organism-based; conditions: Human immunodeficiency virus 1, 3B, MT4, 120 h
[13] = Acute toxicity in Kunming mouse assessed as induction of abnormal behaviors by measuring clonic convulsion at 1000 mg/kg, ig administered as single dose; type: organism-based; conditions: in vivo, po
[14] = Oral bioavailability in Sprague-Dawley rat at 20 mg/kg measured during 5 mins to 12 hrs by LC-MS analysis; type: ADME, organism-based; conditions: in vivo
in vivo [15] = conditions: Sprague-Dawley, rat, po, 20 mg/kg
[16] = Half life in Sprague-Dawley rat at 2 mg/kg, iv measured during 5 mins to 12 hrs by LC-MS analysis; conditions: in vivo
[17] = Acute toxicity in Kunming mouse assessed as induction of abnormal behaviors by measuring ruffled fur at 1000 mg/kg, ig administered as single dose; type: organism-based; conditions: in vivo, po
[18] = Volume of distribution in Sprague-Dawley rat at 2 mg/kg, iv measured during 5 mins to 12 hrs by LC-MS analysis; type: ADME, organism-based; conditions: in vivo
[19] = Acute toxicity in Kunming mouse assessed as induction of abnormal behaviors by measuring anorexia at 1000 mg/kg, ig administered as single dose; type: organism-based; conditions: in vivo, po
[20] = Half life in Sprague-Dawley rat at 20 mg/kg, po measured during 5 mins to 12 hrs by LC-MS analysis; conditions: in vivo
[21] = tested on: Human immunodeficiency virus 1; assay: Antiviral activity against HIV1 NL4-3 infected in human TZM-bl cells assessed as reduction in virus induced cytopathogenicity incubated for 1 day by luciferase reporter gene assay; type: functional, organism-based; conditions: Human immunodeficiency virus 1, NL4-3, TZM-bl, 24 h
MT4 = assay: Cytotoxicity in mock-infected human MT4 assessed as reduction in cell viability incubated for 5 days by MTT assay; type: cell-based; conditions: mt4, 120 h
[22] = Acute toxicity in Kunming mouse assessed as induction of animal death at 1000 mg/kg, ig administered as single dose; type: organism-based; conditions: in vivo, po
[23] = Mean residence time (0 to infinity) in Sprague-Dawley rat at 20 mg/kg, po measured during 5 mins to 12 hrs by LC-MS analysis; conditions: in vivo
[24] = tested on: Human immunodeficiency virus 1; assay: Antiviral activity against HIV1 Env-pseudotyped virus in human U87.CD4.CCR5 target cells assessed as reduction in viral infection at early stage; type: functional, organism-based; conditions: Human immunodeficiency virus 1, U87/CD4/CCR5
[25] = tested on: Human immunodeficiency virus 1; assay: Antiviral activity against HIV1 Env-pseudotyped virus in human U87.CD4.CCR5 target cells assessed as reduction in viral infection at late stage; type: functional, organism-based; conditions: Human immunodeficiency virus 1, U87/CD4/CCR5
[26] = tested on: Human immunodeficiency virus 2; assay: Antiviral activity against HIV2 ROD infected in human MT4 cells assessed as reduction in virus-induced cell death incubated for 5 days by MTT assay; conditions: Human immunodeficiency virus 2, ISOLATE ROD, MT4, 120 h
[27] = human, microsomes
Description: Intrinsic clearance in human liver microsomes in presence of NADPH regenerating system by LC-MS/MS analysis

[28] = Stability in human plasma assessed as compound remaining level at 2 uM incubated for 120 mins at 37 degC by LC-MS/MS analysis; type: ADME, cell-free; conditions: 2 h
[29] = AUC (0 to t) in Sprague-Dawley rat at 2 mg/kg, iv measured during 5 mins to 12 hrs by LC-MS analysis; type: ADME, organism-based; design: dose 2 mg/kg, time 0.083-12 hr, route intravenous; conditions: in vivo
[30] = Cmax in Sprague-Dawley rat at 20 mg/kg, po measured during 5 mins to 12 hrs by LC-MS analysis; type: ADME, organism-based; design: dose 20 mg/kg, route oral; conditions: in vivo

Structural capsid protein (Human immunodeficiency virus 1), sequence (Q76129 as listed by the source): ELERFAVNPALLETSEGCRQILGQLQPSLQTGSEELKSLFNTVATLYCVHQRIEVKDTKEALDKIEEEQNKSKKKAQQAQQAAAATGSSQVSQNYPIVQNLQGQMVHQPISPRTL

For COc1ccc(N(C)C(=O)[C@H](Cc2ccccc2)NC(=O)CN2CCN(S(=O)(=O)c3ccc(N)cc3)CC2=O)cc1, the Activity [1] was “Non-Toxic”, the Cmax [2] was 1280 ng/mL and the remaining at 1 h (in vitro [3]) was 93.4%. It also gave an MRT inf [4] of 42 min, a remaining at 1 h (in vitro [5]) of 0% and an AUC [6] of 120.6 ng·h/mL. The inhibition [7] was “Active”, the clearance [8] was 67.7 mL/min/kg and the AUC [9] was 511.5 ng·h/mL. The Activity [10] was “Non-Toxic”, the Tmax (in vivo [11]) was 4.98 min and the CC50 (TZM) was > 34500 nM. The EC50 [12] was 210 nM, the Activity [13] was “Non-Toxic” and the F [14] was 23%. The Tmax (in vivo [15]) was 15 min, the half-life [16] was 60 min and the Activity [17] was “Non-Toxic”. The Vd [18] was 5.75 L/kg, the Activity [19] was “Non-Toxic” and the half-life [20] was 72 min. The EC50 [21] was 90 nM, the CC50 (MT4) was 179000 nM and the Activity [22] was “Non-Toxic”. The MRT inf [23] was 108 min, the IC50 [24] was 8.96 nM and the IC50 [25] was 240 nM. The EC50 [26] was 31 nM, the CLH [27] was 342 µL/min/mg and the Stability [28] was 88.5%. It also gave an AUC(0-t) [29] of 506 ng·h/mL and a Cmax [30] of 83.8 ng/mL.
